Experimental data as given in patent publication US20080187608A1, “ENRICHED FRACTIONS FROM CLARY SAGE FOR THE TREATMENT OF CANCER, CARDIOVASCULAR AND INFLAMMATORY DISEASES” (SAVIPU PHARMACEUTICALS, priority 2007, published 2008).

How the values were obtained:
[1] = tested on: NAD[P]H:(quinone-acceptor) oxidoreductase (QR) in mouse hepatoma Hepa 1c1c7 cells; experiment: Activation of quinone reductase (QR) in Hepa 1c1c7 cells, menadione-coupled tetrazolium reduction; type: cell-based
Experimental: Activation of Quinone reductase (NAD[P]H:(quinone-acceptor) oxidoreductase (QR). We studied the effects of SP001P and SP 2010 on the activation of QR, a phase 2 enzyme in mouse hepatoma cells Hepa 1c1c7 (ATCC) at lower concentrations. QR protects cells against quinones and highly reactive semiquinones by catalyzing an obligate two-electron reduction of quinones to hydroquinones. We have developed a 96-well plate assay to assess QR activity in these cell lines. QR activity was measured by a menadione-coupled reduction of tetrazolium dye as modified from Prochaska and Santamari. Cells (10^4 per well) were grown for 24 h and then exposed to serial dilutions of inducers for 24 h. Protein concentrations in a corresponding plate were determined by methylene blue staining as described earlier. SP001P and SP 2010 stimulated NAD[P]H:(quinone-acceptor) oxidoreductase (QR), a phase 2 enzyme in a dose dependent manner in mouse hepatoma Hepa 1c1c7 cells at concentrations known to inhibit B[a]P-induced transformation of RTE cells, (FIG. 2). The concentration required to double the specific activity of QR (CD value) for SP001P and SP 2010 were 24 ng/ml and 49 nM, respectively.

[2] = Oxygen Radical Absorbance Capacity (ORAC) assay
From the text: Antioxidant Capability of SP001P and SP 2010. The Oxygen Radical Absorbance Capacity (ORAC) assay depends on the free radical damage to a fluorescent probe, such as fluorescein, to result in a downward change of fluorescent intensity. The presence of antioxidants results in an inhibition in the free radical damage to the fluorescent compound. Reactions containing antioxidants and blanks (solvent) are run in parallel using equivalent amounts of a ROS generator and fluorescent probe. The area under the curve (AUC) from the experimental sample is calculated. Results from different samples are compared with Trolox®, (6-hydroxy-2,5,7,8-tetrametmethylchroman-2-carboxylic acid) a water soluble vitamin E analog and ORAC results are expressed as Trolox® equivalents. ORAC values are calculated using the regression equation between Trolox concentration and the net AUC and are expressed as micromole Trolox equivalents per gram of sample. SP001P and SP 2010 are potent antioxidants with values of 357 and 441 micromole Trolox equivalents per gram, respectively.

[3] = tested on: NFκB transcription factor in A549/NFκB-luc reporter cell line; experiment: NF-κB transactivation after rhTNFα in A549/NFκB-luc reporter cell line; type: cell-based; conditions: rhTNFα activation
From the text: (§1) Inhibition of activation of NF-kB by SP001P and SP 2010. We evaluated the effects of SP001P and SP 2010 on the activity of NFκB transcription factor after activation with rhTNFα in a reporter cell line A549/NFκB-luc designed by Panomics according to the manufacturer's instructions. […] It is interesting to note that although SP001P has only 20% of SP 2010 yet it produced a dose response curve that was very similar with SP 2010 (FIG. 4A). […] We studied the effects of SP 2010 on TNF-α-dependent activation of NF-κB binding to KB site in nuclear extracts of HeLa cells. To measure the binding of the activated NF-κB to its consensus KB sequence, nuclear extracts from HeLa cells treated with SP 2010 and stimulated with TNFα were prepared by the Panomics Nuclear Extraction kit. Nuclear extracts were diluted to 2 μg/μl and 10 μl of the extract was used to quantify transcription factor activation, specifically that of NF-κB p50 (ELISA, Panomics).

[4] = tested on: NF-κB p50 binding to KB site in HeLa cells; experiment: TNF-α-dependent NF-κB binding to κB site in nuclear extracts of HeLa cells (NF-κB p50 ELISA); type: cell-based; conditions: HeLa cells stimulated with TNFα
From the text: as §1

## Cc1coc2c1C(=O)C(=O)c1c-2ccc2c1CCCC2(C)C [SP 2010, Tanshinone IIA]
[1]; 24 h exposure
  concentration required to double the specific activity of QR (CD value): 49 nM
[1]; FIG. 2
  stimulation of QR: stimulated
[2]
  ORAC value: 441 micromole Trolox equivalents per gram
[3]
  transactivation of NF-κB: dose-dependent decrease
[4]
  NF-κB binding to KB site: dose-dependent decrease
